According to patent publication US10172797B2, “Extruded extended release abuse deterrent pill” (Pharmaceutical Manufacturing Research Services, Inc., priority 2013, dated 2019):

Key:
[1] = cited from earlier work
[2] = Alcohol solubility tested (200 proof ethanol, 0.22 micrometer PTFE filter); type: physicochemical
Source text: The following table lists the relative solubility of exemplary components of a formulation. A number of different dyes are listed along with their solubility information taken from the various literature sources and tested experimentally (200 proof ethanol and filtered through a 0.22 micrometer PTFE filter).

CCN(Cc1cccc(S(=O)(=O)[O-])c1)c1ccc(C(=C2C=CC(=[N+](CC)Cc3cccc(S(=O)(=O)[O-])c3)C=C2)c2ccccc2S(=O)(=O)[O-])cc1.[Na+].[Na+] [Blue #1]
Yes: Alcohol Solubility (Literature) [1] | Water Solubility [1] | Alcohol Solubility (tested) [2]

O=C1/C(=C2\Nc3ccc(S(=O)(=O)[O-])cc3C2=O)Nc2ccc(S(=O)(=O)[O-])cc21.[Na+].[Na+] [Blue #2]
Yes: Alcohol Solubility (Literature) [1] | Water Solubility [1] | Alcohol Solubility (tested) [2]

COc1cc(S(=O)(=O)[O-])c(C)cc1N=Nc1c(O)ccc2cc(S(=O)(=O)[O-])ccc12.[Na+].[Na+] [Red #40]
Yes: Alcohol Solubility (Literature) [1] | Water Solubility [1] | Alcohol Solubility (tested) [2]

O=C([O-])C1=NN(c2ccc(S(=O)(=O)[O-])cc2)C(=O)C1N=Nc1ccc(S(=O)(=O)[O-])cc1.[Na+].[Na+].[Na+] (stereo not drawn) [Yellow #5]
Yes: Alcohol Solubility (Literature) [1] | Water Solubility [1] | Alcohol Solubility (tested) [2]
